The subject of data set [1] is MEF: murine embryonic fibroblast. The data set is described as follows: WST-1 cell viability, MEF. Type of data set: cell-based. The note with it: Mus musculus, non-cancer cell line. An excerpt:
(§1) Different cells were utilized as follows: MEF: murine embryonic fibroblast (RRID: CVCL_L690); AML12: mouse liver cell lines (RRID: CVCL_0140); WI-38: human lung fibroblast cell lines (RRID: CVCL_0579); THLE-2: human liver epithelial cell lines (RRID: CVCL_3803); A549: human lung cancer cell lines (RRID: CVCL_0023); HEPG2: human liver cancer cell lines (RRID: CVCL_0027); HEP3B: human hepatoma cell lines (RRID: CVCL_0326); BxPC3: human pancreatic cancer cell lines (RRID: CVCL_0186); U87: human primary glioblastoma cell lines (RRID: CVCL_0022); DU145: human prostate cancer cell lines (RRID: CVCL_0105); MCF7: human breast cancer cell lines (RRID: CVCL_0031); HeLa: human cervical cancer cell lines (RRID: CVCL_0030); HCT116: human colon cancer cell lines (RRID: CVCL_0291). Cells were maintained in Dulbecco’s modified Eagle’s medium (DMEM, Gibco) supplemented with L-glutamine (Lonza) (2 mM), 10% fetal bovine serum (FBS, Hyclone), 1 × non-essential amino acids, and sodium pyruvate (1 mM). THLE-2 cells were maintained in THLE-2 Cell Complete Medium (Zhong Qiao Xin Zhou, Shanghai, China). Cells were incubated at 37 °C in a humidified incubator with 5% CO2. […]
(§2) Cell viability was assessed using the WST-1 assay, based on a previously reported method with slight modifications. […] Absorbance at OD450 was measured using a microplate reader (Synergy H1; BioTek Instruments, Winooski, VT, USA).
For orientation: Formazan colour is commonly taken as a measure of viable cells.

The test system of data set [2] is AML12: mouse liver cell lines. The data set is described as follows: WST-1 cell viability, AML12. It is filed as cell-based. The settings on record: AML12, non-cancer cell line.
From the text: as §1, §2

Data set [3] relates to WI-38: human lung fibroblast cell lines. As to the kind of experiment: WST-1 cell viability, WI-38. Type of data set: cell-based. The note with it: WI-38, non-cancer cell line.
From the text: as §1, §2

The subject of data set [4] is THLE-2: human liver epithelial cell lines. The data set is described as follows: WST-1 cell viability, THLE-2. It is filed as cell-based. The settings on record: THLE-2, non-cancer cell line.
From the text: as §1, §2

For data set [5], the system named is HEPG2: human liver cancer cell lines. As to the kind of experiment: WST-1 cell viability, HEPG2. The settings on record: HEPG2 (liver) cancer cell line. It is filed as cell-based.
From the text: as §1, §2

Data set [6] concerns HEP3B: human hepatoma cell lines. The data set is described as follows: WST-1 cell viability, HEP3B. Type of data set: cell-based. The note with it: HEP3B (liver) cancer cell line.
From the text: as §1, §2

In data set [7] the test system is BxPC3: human pancreatic cancer cell lines. The data set is described as follows: WST-1 cell viability, BxPC3. It is filed as cell-based. The settings on record: BXPC-3, BxPC3 (pancreatic) cancer cell line.
From the text: as §1, §2

Data set [8] deals with U87: human primary glioblastoma cell lines. The data set is described as follows: WST-1 cell viability, U87. Type of data set: cell-based. The note with it: U87 (glioblastoma) cancer cell line.
From the text: as §1, §2

The test system of data set [9] is DU145: human prostate cancer cell lines. The data set is described as follows: WST-1 cell viability, DU145. The settings on record: DU-145, DU145 (prostate) cancer cell line. Type of data set: cell-based.
From the text: as §1, §2

Data set [10] relates to A549: human lung cancer cell lines. The data set is described as follows: WST-1 cell viability, A549. Type of data set: cell-based. The settings on record: Homo sapiens, A549, A549 (lung) cancer cell line, WST-1. From the text: Different cells were utilized as follows: MEF: murine embryonic fibroblast (RRID: CVCL_L690); AML12: mouse liver cell lines (RRID: CVCL_0140); WI-38: human lung fibroblast cell lines (RRID: CVCL_0579); THLE-2: human liver epithelial cell lines (RRID: CVCL_3803); A549: human lung cancer cell lines (RRID: CVCL_0023); HEPG2: human liver cancer cell lines (RRID: CVCL_0027); HEP3B: human hepatoma cell lines (RRID: CVCL_0326); BxPC3: human pancreatic cancer cell lines (RRID: CVCL_0186); U87: human primary glioblastoma cell lines (RRID: CVCL_0022); DU145: human prostate cancer cell lines (RRID: CVCL_0105); MCF7: human breast cancer cell lines (RRID: CVCL_0031); HeLa: human cervical cancer cell lines (RRID: CVCL_0030); HCT116: human colon cancer cell lines (RRID: CVCL_0291). Cells were maintained in Dulbecco’s modified Eagle’s medium (DMEM, Gibco) supplemented with L-glutamine (Lonza) (2 mM), 10% fetal bovine serum (FBS, Hyclone), 1 × non-essential amino acids, and sodium pyruvate (1 mM). THLE-2 cells were maintained in THLE-2 Cell Complete Medium (Zhong Qiao Xin Zhou, Shanghai, China). Cells were incubated at 37 °C in a humidified incubator with 5% CO2. A549 cells were previously stored in the lab and other cell lines were a gift from Haishan Wang’s lab (Institute of Molecular and Cell Biology, Singapore). All cell lines were confirmed to be contamination-free.
(§3) Cell viability was assessed using the WST-1 assay, based on a previously reported method with slight modifications. Briefly, cells were seeded at 1 × 10^4 cells per well in 96-well plates and then treated with different doses of JH62 or DOX for 0–72 h. The cells used included non-cancer cells (MEF, AML12, WI-38, and THLE-2) and cancer cells (A549, HEPG2, HEP3B, BxPC3, U87, DU145, MCF7, HeLa, and HCT116). The WST-1 reagent (Roche, Shanghai, China) was added to each well (10% vol/vol final concentration), followed by incubation for 3 h at 37 °C. Absorbance at OD450 was measured using a microplate reader (Synergy H1; BioTek Instruments, Winooski, VT, USA).

For data set [11], the system named is MCF7: human breast cancer cell lines. As to the kind of experiment: WST-1 cell viability, MCF7. Type of data set: cell-based. The note with it: MCF7 (breast) cancer cell line.
From the text: as §1, §2

Data set [12] relates to HeLa: human cervical cancer cell lines. As to the kind of experiment: WST-1 cell viability, HeLa. It is filed as cell-based. The note with it: HeLa (cervical) cancer cell line.
From the text: as §1, §2

Data set [13] concerns HCT116: human colon cancer cell lines. The data set is described as follows: WST-1 cell viability, HCT116. Type of data set: cell-based. The note with it: HCT-116, HCT116 (colon) cancer cell line.
From the text: as §1, §2

Data set [14] concerns A549 cells. The data set is described as follows: Chromosome staining experiment. Type of data set: cell-based, human. The note with it: A549, 5 μM DOX or 25 μM JH62 for 6 h. On the procedure:
Metaphase chromosome spreads were prepared from A549 cells. Briefly, A549 cells were cultured. After treatment with JH62 or DOX, cells were incubated with Colcemid (Gibco BRL; 0.2 μg/mL final concentration) for 2 h to arrest cells in metaphase. Cells were then subjected to hypotonic treatment in KCl (0.075 M) at 37 °C for 5 min, and fixed by repeated washing with ice-cold freshly prepared 3:1 (vol/vol) methanol:acetic acid. Chromosome spreads were prepared on premarked glass slides using the “drop-cryo” protocol. The chromosome suspension was dropped onto a slide. This was followed by adding three drops of 45% acetic acid and placing a coverslip over the suspension. The slide was then inverted and placed on dry ice for 15 min. The spreads were postfixed in 2.5% glutaraldehyde in cacodylate buffer (pH 7.4, 75 mM) for 15 min and washed with cacodylate buffer (0.1 M). The chromosomes were stained with Vista Green DNA dye (Cell Biolabs, Singapore). After staining, the preparations were washed in water for 5, 10, and 15 min, then dehydrated using a series of ethanol solutions as follows: 5 min in a 70% solution, 10 min in an 85% solution, and 15 min in 100% ethanol. Finally, slides were mounted with a permanent mounting medium, sealed, and analyzed by microscopy.

The test system of data set [15] is A549 cells. The data set is described as follows: DNA fragmentation analysis (genomic DNA electrophoresis). Type of data set: cell-based, human. The settings on record: A549, 24 h; JH62 5–100 µM, DOX 1 and 5 μM. On the procedure:
Genomic DNA fragmentation was analyzed by agarose gel electrophoresis using previously described methods. A549 cells were seeded in 6 cm tissue culture dishes and cultured overnight. Before treatment with JH62 or DOX, the cells were cultured in DMEM lacking FBS for 16 h. After treatment, the cells were then washed three times with PBS and genomic DNA was extracted using a MasterPure™ DNA Purification Kit (Lucigen Corporation, Middleton, WI, USA). The DNA pellet was airdried and resuspended in Tris-HCl (pH 8.0, 10 mM). DNA samples (2.5 μg) were separated by 1% agarose gel electrophoresis in TAE buffer containing ethidium bromide.

Data set [16] relates to A549 cells. The data set is described as follows: Comet assay. It is filed as cell-based, human. The settings on record: A549, 1, 8, and 12 h. On the procedure:
Residual DNA damage was detected by alkaline single cell gel electrophoresis (Comet Assay) using the Trevigen Comet Assay Kit (Trevigen, Gaithersburg, MD, USA) following the manufacturer’s protocol with slight modifications. […] The treated cells were trypsinized and pelleted by centrifugation. The cell pellets were washed and resuspended in 2 mL of ice-cold PBS. The cell suspension was mixed 1:10 (vol/vol) with low-melting point agar at 42 °C and immediately pipetted onto a CometSlide™. Slides were incubated at 4 °C in the dark for 30 min, immersed in chilled lysis solution and incubated again at 4 °C for 30 min. Slides were placed in a horizontal electrophoresis chamber and electrophoresed with buffer NaOH (0.3 M) and EDTA (1 mM) at 1 V/cm for 15 min. Samples were dried and stained with Vista Green DNA dye (Cell Biolabs, Singapore). Comet tails were imaged using a model DM 2500 fluorescent microscope (Leica, Wetzlar, Germany) and quantified by Komet 5.5 software (Andor Technology, Belfast, UK). A minimum of 50 cells were scored per treatment. All experiments were performed independently in triplicate.

Data set [17] relates to non-cancer cells (MEF, AML12, WI-38, and THLE-2). The data set is described as follows: WST-1 cell viability, panel of non-cancer cells. The settings on record: across non-cancer cells (MEF, AML12, WI-38, and THLE-2). It is filed as cell-based. As to the method:
as §3

Data set [18] relates to cancer cell lines. The data set is described as follows: WST-1 cell viability, panel of cancer cell lines. It is filed as cell-based. The note with it: Homo sapiens; across the tested cancer cell lines. As to the method:
as §3

Data set [19] has as its system both non-cancer and cancer cells. As to the kind of experiment: WST-1 cell viability, non-cancer and cancer cells together. It is filed as cell-based. The settings on record: against both non-cancer and cancer cells.
Protocol: Cell viability was assessed using the WST-1 assay, based on a previously reported method with slight modifications [54]. […] The cells used included non-cancer cells (MEF, AML12, WI-38, and THLE-2) and cancer cells (A549, HEPG2, HEP3B, BxPC3, U87, DU145, MCF7, HeLa, and HCT116). The WST-1 reagent (Roche, Shanghai, China) was added to each well (10% vol/vol final concentration), followed by incubation for 3 h at 37 °C. Absorbance at OD450 was measured using a microplate reader (Synergy H1; BioTek Instruments, Winooski, VT, USA).
For data set [20] the following is noted: clinically successful drugs; cited from earlier work.
The test system of data set [21] is A549 cells. The note with it: cited from earlier work.
Data set [22] concerns HeLa. Also on record: method as in PMID 8823519. The settings on record: HeLa ref 87; cited from earlier work.

The text below walks through data of article PMC12844237, “A Novel Quinolone JH62 (E-2-(Tridec-4-en-1-yl)-quinolin-4(1H)-one) from Pseudomonas aeruginosa Exhibits Potent Anticancer Activity” (Microorganisms, 2025).

Read-outs that look alike come from different tables or passages of the source.

Usually IC50 stands for the midpoint of a concentration-inhibition curve. With `COc1cccc2c1C(=O)c1c(O)c3c(c(O)c1C2=O)C[C@@](O)(C(=O)CO)C[C@@H]3O[C@H]1C[C@H](N)[C@H](O)[C@H](C)O1` [DOX, Doxorubicin, reference compound], the IC50 in data set [1] was found to be 3900 ± 400 nM; in data set [2] it was 5100 ± 1300 nM; in [3], 1900 ± 300 nM; in [4] it was 1200 ± 100 nM; in data set [5] it was 800 ± 100 nM; in data set [6] it was 3300 ± 200 nM. Moreover, the IC50 was found to be 1900 ± 100 nM in data set [7]; 1400 ± 1000 nM in data set [8]; 1900 ± 200 nM in [9]; 2100 ± 500 nM in [10]; 1200 ± 500 nM in [11]; 700 ± 700 nM in data set [12]. Besides, the IC50 is 3900 ± 700 nM in [13], 1200 to 5100 nM in data set [17], 700 to 3900 nM in data set [18] and 500 to 5000 nM in [19]. Also, the chromosome morphology result in data set [14] is “fragmented and adhered together”. For the same compound, the “genomic DNA integrity (electrophoresis)” value in [15] is “obvious DNA fragmentation”. In addition, the comet tail analysis result in [16] is “distinct and typical comet tail”.
For the compound `O=C1NC(=O)C(c2ccccc2)(c2ccccc2)N1` [phenytoin], the PPB result in [20] is listed as “exceeding 98%”.
Regarding `CCCCCCCc1[nH]c2ccccc2c(=O)c1O` [PQS, 2-heptyl-3-hydroxy-4(1H)-quinolone], in data set [21] (A549 cells ref 82,83), the IC50 is 19000 nM.
On to `CCCCCC/C=C/Cc1c(C)c(=O)c2ccccc2n1O` [E-1-hydroxy-2-(non-2-enyl)-3-methyl-4-quinolone], for which the IC50 in data set [22] was 1900 nM.
Regarding `Oc1cccc2cccnc12` [8-hydroxyquinoline], the IC50 in [21] (A549 ref 85) is 26000 nM.
